The molecules below were run against JNK3 (Homo sapiens, UniProt P53779) (assay: JNK3 SPA assay (phosphorylation of GST-c-Jun)). Conditions: 3.33 μM ATP, GST-c-Jun substrate, read-out: IC50 against JNK3.
Chain of JNK3 (P53779 whole entry, species assumed): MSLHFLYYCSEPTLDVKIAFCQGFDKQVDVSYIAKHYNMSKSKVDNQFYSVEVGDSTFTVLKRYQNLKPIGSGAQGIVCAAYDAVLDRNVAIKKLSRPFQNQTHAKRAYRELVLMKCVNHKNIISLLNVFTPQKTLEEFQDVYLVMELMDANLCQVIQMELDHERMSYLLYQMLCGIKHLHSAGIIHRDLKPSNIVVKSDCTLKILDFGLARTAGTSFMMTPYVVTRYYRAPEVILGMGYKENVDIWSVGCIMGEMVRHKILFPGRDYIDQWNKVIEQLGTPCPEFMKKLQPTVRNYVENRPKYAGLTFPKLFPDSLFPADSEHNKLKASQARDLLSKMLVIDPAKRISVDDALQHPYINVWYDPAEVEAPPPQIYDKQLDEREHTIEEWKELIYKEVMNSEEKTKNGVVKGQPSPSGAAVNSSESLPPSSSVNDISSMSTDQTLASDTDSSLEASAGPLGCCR
Type: biochemical
Method: JNK1, JNK2, JNK3—SPA Assay
JNK1, JNK2, JNK3—SPA Assay • 1. Compound is dissolved in DMSO to a convenient concentration and this is diluted in 10% DMSO to a five times concentrate of the desired starting concentration (frequently 1:100). • 2. 10 μl of 500 mM EDTA is added to alternative wells of the Opti-plate row, which will receive kinase reaction plus DMSO. This creates the negative control. • 3. For the JNK2 and JNK3 assay, compounds are prepared in six 2-fold dilutions with water and each concentration is tested in duplicate. For the JNK1 assay compounds are prepared in four 5-fold dilutions with water which are tested in triplicate. Controls are treated identically. • 4. 20 μl per well of each compound concentration is transferred to an Opti-plate, in duplicate. • 5. 30 μl (JNK2/3 SPA) or 50 μl (JNK1 SPA) of substrate solution (25 mM HEPES pH 7.5, 10 mM magnesium acetate with 3.33 μM ATP (JNK2/3) or 2 μM ATP (JNK1), approximately 7.5 kBq [γ-^33P] ATP, GST-c-Jun, in water) is added to each well. • 6. 50 μl (JNK2/3 SPA) or 30 μl (JNK1 SPA) of kinase solution (JNK in 25 mM HEPES pH 7.5, 10 mM Mg Acetate) is added to each well.
• 7. The plate is incubated for 30 minutes at room temperature. • 8. 100 μl of bead/stop solution is added to each well (5 mg/ml glutathione-PVT-SPA beads, 40 mM ATP in PBS). • 9. Plates are sealed and incubated for 30 minutes at room temperature, centrifuged for 10 minutes at 2500 g and counted. • 10. The IC50 values are calculated as the concentration of the compound being tested at which the phosphorylation of c-Jun is decreased to 50% of the control value.
An IC50 of 1740 nM was found for `CN1CCN([C@H]2CC[C@H](c3cnc4[nH]cc(-c5csc(C6CCCN6C)n5)c4c3)CC2)CC1` (stereo partly shown) [Compound I-109, 4-(5-((1r,4r)-4-(4-methylpiperazin-1-yl)cyclohexyl)-1H-pyrrolo[2,3-b]pyridin-3-yl)-2-(1-methylpyrrolidin-2-yl)thiazole] in this work. An IC50 of 229 nM was found for `O=C(c1nc(-c2c[nH]c3ncc([C@H]4CC[C@@H](N5CCOCC5)CC4)cc23)cs1)N1CCCCC1` [Compound I-30, (4-(5-((1r,4r)-4-morpholinocyclohexyl)-1H-pyrrolo[2,3-b]pyridin-3-yl)thiazol-2-yl)(piperidin-1-yl)methanone] in this work. An IC50 of 520 nM was found for `CCOc1nc(-c2c[nH]c3ncc([C@H]4CC[C@H](N5CCCOCC5)CC4)cc23)cs1` [Compound I-125, 3-(2-ethoxy-1,3-thiazol-4-yl)-5-[trans-4-(1,4-oxazepan-4-yl)cyclohexyl]-1H-pyrrolo[2,3-b]pyridine] in this work. An IC50 greater than 1000 nM was found for `Cc1nc(-c2c[nH]c3ncc([C@H]4CC[C@@H](N5CCN(C)CC5)CC4)cc23)cs1` [Compound I-92, 2-methyl-4-(5-((1s,4s)-4-(4-methylpiperazin-1-yl)cyclohexyl)-1H-pyrrolo[2,3-b]pyridin-3-yl)thiazole] in this work. An IC50 greater than 2000 nM was found for `c1nc(-c2c[nH]c3ncc([C@H]4CC[C@H](N5CCCOCC5)CC4)cc23)cs1` [Compound I-116, 4-((1r,4r)-4-(3-(thiazol-4-yl)-1H-pyrrolo[2,3-b]pyridin-5-yl)cyclohexyl)-1,4-oxazepane] in this work. An IC50 of 240 nM was found for `CN1CCC(c2nc(-c3c[nH]c4ncc(C5CCCCC5)cc34)cs2)CC1` [Compound I-11, 5-Cyclohexyl-3-[2-(1-methyl-piperidin-4-yl)-thiazol-4-yl]-1H-pyrrolo[2,3-b]pyridine] in this work. An IC50 of 832 nM was found for `Cc1csc(-c2c[nH]c3ncc([C@H]4CC[C@H](N5CCCOCC5)CC4)cc23)n1` [Compound I-117, 4-((1r,4r)-4-(3-(4-methylthiazol-2-yl)-1H-pyrrolo[2,3-b]pyridin-5-yl)cyclohexyl)-1,4-oxazepane] in this work. An IC50 of 309 nM was found for `CN1CCC(c2csc(-c3c[nH]c4ncc([C@H]5CC[C@@H](N6CCOCC6)CC5)cc34)n2)CC1` [Compound I-79, 4-((1s,4s)-4-(3-(4-(1-methylpiperidin-4-yl)thiazol-2-yl)-1H-pyrrolo[2,3-b]pyridin-5-yl)cyclohexyl)morpholine] in this work. An IC50 of 692 nM was found for `CN1CCC(c2nc(-c3c[nH]c4ncc([C@H]5CC[C@H](N6CCOCC6)CC5)cc34)cs2)CC1` [Compound I-94, 4-((1r,4r)-4-(3-(2-(1-methylpiperidin-4-yl)thiazol-4-yl)-1H-pyrrolo[2,3-b]pyridin-5-yl)cyclohexyl)morpholine] in this work. An IC50 of 1230 nM was found for `CN1CCCC1c1nc(-c2c[nH]c3ncc([C@H]4CC[C@@H](N5CCOCC5)CC4)cc23)cs1` (stereo partly shown) [Compound I-108, 4-((1s,4s)-4-(3-(2-(1-methylpyrrolidin-2-yl)thiazol-4-yl)-1H-pyrrolo[2,3-b]pyridin-5-yl)cyclohexyl)morpholine] in this work. An IC50 of 16 nM was found for `O=C(c1nc(-c2c[nH]c3ncc(C4CCC5(CC4)OCCO5)cc23)cs1)N1CCCCC1` [Compound I-25, {4-[5-(1,4-Dioxa-spiro[4.5]dec-8-yl)-1H-pyrrolo[2,3-b]pyridin-3-yl]-thiazol-2-yl}-piperidin-1-yl-methanone] in this work. An IC50 of 933 nM was found for `Cc1csc(-c2c[nH]c3ncc(C4CCCCC4)cc23)n1` [Compound I-51, 2-(5-cyclohexyl-1H-pyrrolo[2,3-b]pyridin-3-yl)-4-methylthiazole] in this work. An IC50 greater than 2000 nM was found for `CN1CCN([C@H]2CC[C@@H](c3cnc4[nH]cc(-c5csc(C6CCCN6C)n5)c4c3)CC2)CC1` (stereo partly shown) [Compound I-110, 4-(5-((1s,4s)-4-(4-methylpiperazin-1-yl)cyclohexyl)-1H-pyrrolo[2,3-b]pyridin-3-yl)-2-(1-methylpyrrolidin-2-yl)thiazole] in this work. An IC50 of 269 nM was found for `CN1CCN([C@H]2CC[C@H](c3cnc4[nH]cc(-c5nc(C(F)(F)F)cs5)c4c3)CC2)CC1` [Compound I-82, 2-(5-((1r,4r)-4-(4-methylpiperazin-1-yl)cyclohexyl)-1H-pyrrolo[2,3-b]pyridin-3-yl)-4-(trifluoromethyl)thiazole] in this work. An IC50 of 110 nM was found for `c1ncc(-c2c[nH]c3ncc([C@H]4CC[C@H](N5CCOCC5)CC4)cc23)s1` [Compound I-60, 4-((1r,4r)-4-(3-(thiazol-5-yl)-1H-pyrrolo[2,3-b]pyridin-5-yl)cyclohexyl)morpholine] in this work. An IC50 greater than 1000 nM was found for `Cc1nc(-c2c[nH]c3ncc([C@H]4CC[C@@H](N5CCCOCC5)CC4)cc23)cs1` [Compound I-76, 4-((1s,4s)-4-(3-(2-methylthiazol-4-yl)-1H-pyrrolo[2,3-b]pyridin-5-yl)cyclohexyl)-1,4-oxazepane] in this work. An IC50 of 520 nM was found for `COc1nc(-c2c[nH]c3ncc([C@H]4CC[C@H](N5CCCOCC5)CC4)cc23)cs1` [Compound I-124, 3-(2-methoxy-1,3-thiazol-4-yl)-5-[trans-4-(1,4-oxazepan-4-yl)cyclohexyl]-1H-pyrrolo[2,3-b]pyridine] in this work. An IC50 of 550 nM was found for `CN1CCC(c2nc(-c3c[nH]c4ncc([C@H]5CC[C@H](N6CCCOCC6)CC5)cc34)cs2)CC1` [Compound I-102, 4-((1r,4r)-4-(3-(2-(1-methylpiperidin-4-yl)thiazol-4-yl)-1H-pyrrolo[2,3-b]pyridin-5-yl)cyclohexyl)-1,4-oxazepane] in this work. An IC50 of 580 nM was found for `c1ncc(-c2c[nH]c3ncc(C4CCCCC4)cc23)s1` [Compound I-48, 5-(5-cyclohexyl-1H-pyrrolo[2,3-b]pyridin-3-yl)thiazole] in this work. An IC50 of 1450 nM was found for `Cc1cnc(-c2c[nH]c3ncc([C@H]4CC[C@H](N5CCCOCC5)CC4)cc23)s1` [Compound I-121, 3-(5-methyl-1,3-thiazol-2-yl)-5-[trans-4-(1,4-oxazepan-4-yl)cyclohexyl]-1H-pyrrolo[2,3-b]pyridine] in this work. An IC50 of 302 nM was found for `CCOc1nc(-c2c[nH]c3ncc([C@H]4CC[C@H](N5CCOCC5)CC4)cc23)cs1` [Compound I-63, 4-((1r,4r)-4-(3-(2-ethoxythiazol-4-yl)-1H-pyrrolo[2,3-b]pyridin-5-yl)cyclohexyl)morpholine] in this work. An IC50 of 891 nM was found for `COc1nc(-c2c[nH]c3ncc(C4CCCCC4)cc23)cs1` [Compound I-50, 4-(5-cyclohexyl-1H-pyrrolo[2,3-b]pyridin-3-yl)-2-methoxythiazole] in this work. An IC50 of 1330 nM was found for `O=C(c1nc(-c2c[nH]c3ncc([C@H]4CC[C@@H](N5CCOCC5)CC4)cc23)cs1)N1CCOCC1` [Compound I-31, morpholino(4-(5-((1s,4s)-4-morpholinocyclohexyl)-1H-pyrrolo[2,3-b]pyridin-3-yl)thiazol-2-yl)methanone] in this work. An IC50 of 162 nM was found for `O=C(c1nc(-c2c[nH]c3ncc([C@H]4CC[C@H](N5CCOCC5)CC4)cc23)cs1)N1CCOCC1` [Compound I-34, morpholino(4-(5-((1r,4r)-4-morpholinocyclohexyl)-1H-pyrrolo[2,3-b]pyridin-3-yl)thiazol-2-yl)methanone] in this work. An IC50 of 251 nM was found for `O=C(c1nc(-c2c[nH]c3ncc(C4=CCCC4)cc23)cs1)N1CCCCC1` [Compound I-4, [4-(5-Cyclopent-1-enyl-1H-pyrrolo[2,3-b]pyridin-3-yl)-thiazol-2-yl]-piperidin-1-yl-methanone] in this work. An IC50 of 479 nM was found for `COc1nc(-c2c[nH]c3ncc([C@H]4CC[C@H](N5CCOCC5)CC4)cc23)cs1` [Compound I-120, 4-((1r,4r)-4-(3-(2-methoxythiazol-4-yl)-1H-pyrrolo[2,3-b]pyridin-5-yl)cyclohexyl)morpholine] in this work. An IC50 of 1230 nM was found for `CN1CCCC1c1nc(-c2c[nH]c3ncc([C@H]4CC[C@H](N5CCCOCC5)CC4)cc23)cs1` (stereo partly shown) [Compound I-113, 4-((1r,4r)-4-(3-(2-(1-methylpyrrolidin-2-yl)thiazol-4-yl)-1H-pyrrolo[2,3-b]pyridin-5-yl)cyclohexyl)-1,4-oxazepane] in this work. An IC50 of 1260 nM was found for `CN1CCCC1c1nc(-c2c[nH]c3ncc([C@H]4CC[C@H](N5CCOCC5)CC4)cc23)cs1` (stereo partly shown) [Compound I-107, 4-((1r,4r)-4-(3-(2-(1-methylpyrrolidin-2-yl)thiazol-4-yl)-1H-pyrrolo[2,3-b]pyridin-5-yl)cyclohexyl)morpholine] in this work. An IC50 of 138 nM was found for `CC1CCC(c2cnc3[nH]cc(-c4csc(C(=O)N5CCCCC5)n4)c3c2)CC1` (stereo not shown) [Compound I-20, {4-[5-(4-Methyl-cyclohexyl)-1H-pyrrolo[2,3-b]pyridin-3-yl]-thiazol-2-yl}-piperidin-1-yl-methanone] in this work. An IC50 of 575 nM was found for `Cc1csc(-c2c[nH]c3ncc([C@H]4CC[C@H](N5CCOCC5)CC4)cc23)n1` [Compound I-61, 4-((1r,4r)-4-(3-(4-methylthiazol-2-yl)-1H-pyrrolo[2,3-b]pyridin-5-yl)cyclohexyl)morpholine] in this work. An IC50 of 3310 nM was found for `Cc1nc(-c2c[nH]c3ncc([C@H]4CC[C@H](N5CCCC5)CC4)cc23)cs1` [Compound I-74, 2-methyl-4-(5-((1r,4r)-4-(pyrrolidin-1-yl)cyclohexyl)-1H-pyrrolo[2,3-b]pyridin-3-yl)thiazole] in this work.

— patent publication US7951802B2, “Use of 7-azaindoles in the inhibition of c-Jun N-terminal kinase” (Eisai R&D Management Co., Ltd., priority 2007, dated 2011)
